Assay [1] concerns the target T1, SERT WT (Homo sapiens, UniProt P31645).
T1 construct: expressed in transfected cells; host or cells: COS-7
The assay is described as follows: [3H]S-CIT competition (equilibrium) binding on COS-7 membranes.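 Further: transiently transfected cell membranes incubated 1 h at room temperature with 5–10 nM [3H]S-CIT, nonspecific binding defined using 5 µM paroxetine.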 The note with it: COS-7 membranes, SERT WT; read-out: Inhibition of [^3H]S-CIT binding (IC50).

Assay [2] concerns the target T1, SERT WT. The assay is described as follows: [3H]S-CIT dissociation rate assay (allosteric potency). Format: binding. To be noted: for IC50: read-out: Allosteric potency inhibition of [^3H]S-CIT dissociation (IC50).
Assay [3] has as its target T1, SERT WT. Put plainly: [3H]IMI dissociation rate assay (allosteric potency).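 On all read-outs here: membranes of COS-7 cells transiently expressing hSERT, dissociation of prebound radioligand tracked by filtration over seven time points (5–70 min), rate constant with test ligand expressed relative to buffer-only rate.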 Format: binding. The note with it: SERT WT; for IC50: read-out: Allosteric potency inhibition of [^3H]IMI dissociation (IC50).
Assay [4] has as its system extracellular 5-HT levels in rat hippocampus. Put plainly: Microdialysis in ventral hippocampus of freely moving rats.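 On extracellular 5-HT level: percent of mean basal level in three fractions before perfusion start.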 Format: in vivo. Also noted: extracellular 5-HT level / AUC: unit not given here. The note with it: single animals.
Assay [5] concerns the target T1, SERT WT. The assay is described as follows: [3H]5-HT uptake in intact COS-7 cells. Format: cell-based. To be noted: read-out: KM (5-HT); SERT WT.
Setting [6] is: log conc -5.4318, listed as AE56461.
[7] abbreviates: log conc -5.9101, listed as AE56461.
[8] abbreviates: log conc -5.9101, listed as AF60098.

Experimental findings from article PMC7083837 (Nature Communications, 2020) are described below.

As a reminder, the IC50 is the midpoint of a concentration-inhibition curve. The term Km denotes the substrate concentration at which the rate is half of its maximum.

SMILES strings stand for the structures. “And” between values parts separate entries of the source, which are not always exact repeats. Identical values can stand only once.

T1 sequence (P31645 whole entry): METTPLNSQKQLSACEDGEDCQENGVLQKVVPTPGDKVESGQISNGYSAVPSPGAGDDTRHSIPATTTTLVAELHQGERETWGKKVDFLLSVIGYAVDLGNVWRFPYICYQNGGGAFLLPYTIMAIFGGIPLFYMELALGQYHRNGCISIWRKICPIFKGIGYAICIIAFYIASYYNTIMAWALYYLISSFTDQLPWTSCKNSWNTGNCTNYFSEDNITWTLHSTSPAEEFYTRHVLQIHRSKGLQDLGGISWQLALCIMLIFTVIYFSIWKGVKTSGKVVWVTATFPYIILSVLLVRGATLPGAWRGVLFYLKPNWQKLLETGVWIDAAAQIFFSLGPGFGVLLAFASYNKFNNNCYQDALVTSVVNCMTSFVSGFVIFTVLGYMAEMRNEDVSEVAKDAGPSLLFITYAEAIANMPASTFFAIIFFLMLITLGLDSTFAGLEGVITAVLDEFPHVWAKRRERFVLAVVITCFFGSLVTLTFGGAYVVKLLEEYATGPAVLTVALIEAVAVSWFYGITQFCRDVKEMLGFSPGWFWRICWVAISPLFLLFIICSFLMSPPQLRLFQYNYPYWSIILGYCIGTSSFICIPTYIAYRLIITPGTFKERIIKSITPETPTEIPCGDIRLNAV

On to `NC(=O)c1ccc2c(c1)CO[C@@]2(CCCN1CCC(c2ccc3c(c2)NC(=O)CC3)CC1)c1ccc(F)cc1` [AE, (S)-1-(4-fluorophenyl)-1-(3-(4-(2-oxo-1,2,3,4-tetrahydroquinolin-7-yl)piperidin-1-yl)propyl)-1,3-dihydroisobenzofuran-5-carboxamide], for which the IC50 is 1040 nM at SERT WT [1]; 33800 nM on SERT WT [2]; 119 nM and 120 nM at SERT WT [3]. Also, the “[^3H]S-CIT dissociation relative to control (source data Fig 3B)” value at SERT WT [2] (log conc -4, listed as AE56461) was 0.304 and 0.27 and 0.327; on SERT WT [2] (log conc -4.47756, listed as AE56461) it was 0.466 and 0.496 and 0.522; on SERT WT [2] (log conc -4.95468, listed as AE56461), 0.654 and 0.732 and 0.716; at SERT WT [2] (setting [6]), 0.892 and 0.93 and 0.888; on SERT WT [2] (setting [7]), 0.912 and 1.007 and 0.973; at SERT WT [2] (log conc -6.38561, listed as AE56461), 0.927 and 1.032 and 0.97. Also, the “[^3H]S-CIT dissociation relative to control (source data Fig 3B)” value at SERT WT [2] (log conc -6.86273, listed as AE56461) is 0.952 and 1.031 and 0.987. The “[^3H]IMI dissociation relative to control (source data Fig 3C)” value was 0.06439 and 0.064 and 0.0867 and 0.04446 and 0.04701 on SERT WT [3] (log conc -4.4776, listed as AE56461); 0.0763 and 0.076 and 0.0996 and 0.0916 and 0.07313 on SERT WT [3] (setting [6]); 0.1205 and 0.121 and 0.184 and 0.1786 and 0.1244 at SERT WT [3] (setting [7]); 0.2609 and 0.261 and 0.334 and 0.3145 and 0.2627 on SERT WT [3] (log conc -6.3856, listed as AE56461); 0.4485 and 0.449 and 0.476 and 0.4376 and 0.458 on SERT WT [3] (log conc -6.8627, listed as AE56461); 0.6779 and 0.678 and 0.684 and 0.679 and 0.715 on SERT WT [3] (log conc -7.3398, listed as AE56461). In addition, the “[^3H]IMI dissociation relative to control (source data Fig 3C)” value at SERT WT [3] (log conc -7.817, listed as AE56461) was 0.9119 and 0.9318 and 0.9209 and 0.831 and 0.9158; at SERT WT [3] (log conc -8.2941, listed as AE56461), 1.0028 and 1.006 and 0.9639 and 1.0302 and 1.0089; on SERT WT [3] (log conc -8.7712, listed as AE56461) it was 0.9594 and 0.977 and 0.9693 and 1.1187 and 1.1091.

On to `CN(C)CCCN1c2ccccc2CCc2ccccc21` [imipramine, reference compound], for which the AUC in assay [4] (Fig 6B Inset) is 84 and 92 and 130 and 62 and 48 and 46 and 143 and 182 and 163 and 129 and 74 and 127 and 73. Also, the “extracellular 5-HT level” value in assay [4] (Fig 6B, Time -40) was 77.25 and 153.32 and 98.52 and 112.22 and 48.77 and 123.66 and 115.15 and 92.18 and 91.72 and 110.66 and 146.17.

In the case of `NCCc1c[nH]c2ccc(O)cc12` [5-HT, Serotonin, reference compound], on SERT WT [5], the Km amounted to 0.52 µM.

Regarding `NC(=O)c1ccc2c(c1)CO[C@@]2(CCCN1CC=C(c2ccc3ccc(=O)[nH]c3c2)CC1)c1ccc(F)cc1` [AF, (S)-1-(4-fluorophenyl)-1-(3-(4-(2-oxo-1,2-dihydroquinolin-7-yl)-3,6-dihydropyridin-1(2H)-yl)propyl)-1,3-dihydroisobenzofuran-5-carboxamide], the IC50 at SERT WT [1] is 79 nM; on SERT WT [2], 10400 nM; at SERT WT [3], 192 nM and 190 nM. The “[^3H]S-CIT dissociation relative to control (source data Fig 3B)” value on SERT WT [2] (log conc -4, listed as AF60098) is 0.1701 and 0.2211 and 0.1573 and 0.2182 and 0.2661; at SERT WT [2] (log conc -4.47756, listed as AF60098), 0.2756 and 0.2914 and 0.2326 and 0.2923 and 0.3084; at SERT WT [2] (log conc -4.95468, listed as AF60098), 0.3758 and 0.4105 and 0.4138 and 0.4162 and 0.3863; on SERT WT [2] (log conc -5.4318, listed as AF60098) it was 0.7059 and 0.6013 and 0.6811 and 0.5633 and 0.7156; on SERT WT [2] (setting [8]), 0.8853 and 0.874 and 0.8934 and 0.8911 and 0.9427; at SERT WT [2] (log conc -6.38561, listed as AF60098) it was 0.9692 and 0.7987 and 0.9599 and 0.9034 and 0.9936. On SERT WT [2] (log conc -6.86273, listed as AF60098), the “[^3H]S-CIT dissociation relative to control (source data Fig 3B)” value is 0.955 and 0.9328 and 0.9433 and 0.9567 and 0.9549. Besides, the “[^3H]IMI dissociation relative to control (source data Fig 3C)” value on SERT WT [3] (setting [8]) was 0.2397 and 0.2132 and 0.1806 and 0.1901 and 0.1781; on SERT WT [3] (log conc -6.3856, listed as AF60098) it was 0.6028 and 0.4774 and 0.425 and 0.3481 and 0.3211; at SERT WT [3] (log conc -6.8627, listed as AF60098), 0.7993 and 0.6981 and 0.6134 and 0.5939 and 0.5386; at SERT WT [3] (log conc -7.3398, listed as AF60098), 0.7825 and 0.9163 and 0.612 and 0.781 and 0.6966; on SERT WT [3] (log conc -7.817, listed as AF60098) it was 0.8219 and 0.9518 and 0.9715 and 0.9341 and 0.8939.
